From EP4722201A1, “3-PHENYLISOXAZOLINE-5-CARBOXAMIDE COMPOUND, AND PREPARATION METHOD THEREFOR, HERBICIDAL COMPOSITION THEREOF AND USE THEREOF” (Jiangsu Flag Chemical Industry Co., Ltd, priority 2023, dated 2024) come the findings set out here.

Common to all, as to assay: Indoor herbicide activity determination, Seed Treatment; pre-emergence (soil spray)
Common to all, as to type: in vivo

For assay [1], the system named is Alopecurus myosuroides. Conditions: Dosage 120 g a.i./ha. The method, boiled down:
(§1)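 Herbicide was applied to soil before weed emergence, 24 h after sowing, by tower spraying. Plants grew at constant temperature with illumination, and fresh weight compared with untreated pots gave % inhibition after 21 days.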

The test system of assay [2] is Lolium multiflorum. Conditions: Dosage 120 g a.i./ha. The method, boiled down:
as §1

For assay [3], the system named is Eleusine indica. The conditions noted are these: Dosage 120 g a.i./ha. The method, boiled down:
as §1

The test system of assay [4] is Eclipta prostrata. The conditions noted are these: 60 g a.i./ha, read-out: Herbicidal activities (inhibition rate) Eclipta prostrata. The procedure, abridged: as §1
Assay [5] relates to Leptochloa chinensis. The conditions noted are these: Dosage 120 g a.i./ha. The procedure, abridged: as §1
In assay [6] the test system is Alopecurus japonicus. The conditions noted are these: Dosage 120 g a.i./ha. The procedure, abridged:
as §1

In assay [7] the test system is Cyperus iria. Conditions: 60 g a.i./ha, read-out: Herbicidal activities (inhibition rate) Cyperus iria. The method, boiled down: as §1
Assay [8] concerns Digitaria sanguinalis. Conditions: 60 g a.i./ha, read-out: Herbicidal activities (inhibition rate) Digitaria sanguinalis. The method, boiled down: as §1

With `C=C[C@]1(C(=O)N[C@H]2C=C[C@@H](C(=O)OC)C2)CC(c2cc(F)cc(C(F)(F)F)c2)=NO1` [I-428], the “Herbicidal activities, Alopecurus myosuroides (inhibition rate class)” value in assay [1] is listed as “A (A indicates that the inhibition rate was greater than or equal to 80% to 100%)”. Further, the “Herbicidal activities, Lolium multiflorum (inhibition rate class)” value in assay [2] was “A (A indicates that the inhibition rate was greater than or equal to 80% to 100%)”. In assay [3], the “Herbicidal activities, Eleusine indica (inhibition rate class)” value was “A (A indicates that the inhibition rate was greater than or equal to 80% to 100%)”. The inhibition at 60 g/ha in assay [4] was in the range of 60 to 80%; in assay [7], 80 to 100%; in assay [8], 80 to 100%. The “Herbicidal activities, Leptochloa chinensis (inhibition rate class)” value in assay [5] is on record as “A (A indicates that the inhibition rate was greater than or equal to 80% to 100%)”. Besides, the “Herbicidal activities, Alopecurus japonicus (inhibition rate class)” value in assay [6] is “A (A indicates that the inhibition rate was greater than or equal to 80% to 100%)”.

In the case of `C=C[C@]1(C(=O)N[C@H]2C=C[C@@H](C(=O)OCCCOC)C2)CC(c2cc(F)cc(C(F)(F)F)c2)=NO1` [I-436], the “Herbicidal activities, Alopecurus myosuroides (inhibition rate class)” value in assay [1] is “A (A indicates that the inhibition rate was greater than or equal to 80% to 100%)”. In assay [2], the “Herbicidal activities, Lolium multiflorum (inhibition rate class)” value is “B (B indicates that the inhibition rate was greater than or equal to 60% to less than 80%)”. For the same molecule, the “Herbicidal activities, Eleusine indica (inhibition rate class)” value in assay [3] is “A (A indicates that the inhibition rate was greater than or equal to 80% to 100%)”. The results for the inhibition at 60 g/ha in assay [4], in assay [7] and in assay [8] were 60 to 80%, 60 to 80% and 80 to 100%, respectively. The “Herbicidal activities, Leptochloa chinensis (inhibition rate class)” value in assay [5] is given as “A (A indicates that the inhibition rate was greater than or equal to 80% to 100%)”. The “Herbicidal activities, Alopecurus japonicus (inhibition rate class)” value in assay [6] is “A (A indicates that the inhibition rate was greater than or equal to 80% to 100%)”.

As to `C=C[C@]1(C(=O)N[C@H]2C=C[C@@H](C(=O)OCCC)C2)CC(c2cc(F)cc(C(F)(F)F)c2)=NO1` [I-437], the “Herbicidal activities, Alopecurus myosuroides (inhibition rate class)” value in assay [1] is listed as “A (A indicates that the inhibition rate was greater than or equal to 80% to 100%)”. For the same molecule, the “Herbicidal activities, Lolium multiflorum (inhibition rate class)” value in assay [2] was “A (A indicates that the inhibition rate was greater than or equal to 80% to 100%)”. Also, the “Herbicidal activities, Eleusine indica (inhibition rate class)” value in assay [3] was “A (A indicates that the inhibition rate was greater than or equal to 80% to 100%)”. For the same molecule, the inhibition at 60 g/ha was in the range of 60 to 80% in assay [4], 80 to 100% in assay [7] and 80 to 100% in assay [8]. In addition, in assay [5], the “Herbicidal activities, Leptochloa chinensis (inhibition rate class)” value is listed as “A (A indicates that the inhibition rate was greater than or equal to 80% to 100%)”. Besides, the “Herbicidal activities, Alopecurus japonicus (inhibition rate class)” value in assay [6] is recorded as “A (A indicates that the inhibition rate was greater than or equal to 80% to 100%)”.

Turning to `C=C[C@]1(C(=O)N[C@H]2C=C[C@@H](C(=O)O[C@H](C)COC)C2)CC(c2cc(F)cc(OC(F)(F)F)c2)=NO1` [I-459], in assay [1], the “Herbicidal activity (inhibition rate class), Alopecurus myosuroides” value was “A (A indicates that the inhibition rate was greater than or equal to 80% to 100%)”. Also, the “Herbicidal activity (inhibition rate class), Lolium multiflorum” value in assay [2] is listed as “A (A indicates that the inhibition rate was greater than or equal to 80% to 100%)”. The “Herbicidal activity (inhibition rate class), Eleusine indica” value in assay [3] was “A (A indicates that the inhibition rate was greater than or equal to 80% to 100%)”. In addition, the inhibition at 60 g/ha in assay [4], in assay [7] and in assay [8] was 60 to 80% in each case. For the same molecule, in assay [5], the “Herbicidal activity (inhibition rate class), Leptochloa chinensis” value was “A (A indicates that the inhibition rate was greater than or equal to 80% to 100%)”. The “Herbicidal activity (inhibition rate class), Alopecurus japonicus” value in assay [6] was “A (A indicates that the inhibition rate was greater than or equal to 80% to 100%)”.
